From US6972298B2, “Method of treating or inhibiting neutrophil chemotaxis by administering a MEK inhibitor” (Warner-Lambert Company, priority 2001, dated 2005)
“Also recorded” adds a separate entry of the source. Where two headings read alike, the source gives them in different places. One block for each compound: values may come before it.

Key:
[1] = oral bioavailability; conditions: in vivo
[2] = system: IL-8-induced chemotaxis; conditions: cited from earlier work
[3] = system: colon cancer cells; conditions: read-out: IC50, decrease of endogenous constitutive MAPK activation or growth in soft agar; cited from earlier work
[4] = system: MEK1/2; experiment: kinase assays of MEK1/2 activity in response to IL-8; assay type: cell-based, human; conditions: pre-treatment with inhibitor
Method: (§1) The role of PI3K in IL-8 activation of ERK has been controversial. […] In parallel, kinase assays were performed to examine the MEK1/2 activity in response to IL-8.

[5] = in vivo; cited from earlier work
[6] = system: IL-8-stimulated neutrophil chemotaxis; experiment: In vitro neutrophil chemotaxis, IL-8, transwell chamber assay; assay type: cell-based, human; conditions: for inhibition at 0.01 µM: read-out: inhibition of chemotaxis at 0.01 μM, 0.01 μM inhibitor alone; for IC50: 3.125 nM IL-8, 3 hours
Method: Subsequently, the cells were stimulated with 3.125 nM of IL-8 for a period of 3 hours at which time the migrated cells were quantified using a cell sorter as described elsewhere. Percent inhibition was calculated based on the differences in the number of migrated cells compared to IL-8 alone controls.
The migrated cells were quantitated as described, and the percent inhibition was represented.
Number of cells migrated was measured 3 hours after IL-8 stimulation and expressed as percent control. Each value represents the average ±S.E. obtained from at least three different donors with duplicates in each set.
(§2) Polymorphonuclear leukocytes (PMNs) were isolated from whole blood obtained from healthy human donors. Plasma was separated from the remainder of the blood using a Dextran density gradient. Red blood cells (RBCs) and PMNs were further isolated by centrifugation at 2500 rpm for 15 minutes, using a Lymphoprep sedimentation solution. RBCs were lysed with 0.2% NaCl, neutralized with 1.8% NaCl, and the remaining neutrophils were resuspended in RPMI binding buffer at a final concentration of 10 million cells/mL.
The neutrophil chemotaxis assay was conducted with 1 million cells per well in […] polycarbonate membrane transwell plates (Corning-Costar, Cambridge, Mass.). The various inhibitors were prepared as 1 or 10 mM stock solutions in dimethyl sulphoxide (DMSO). Inhibitor dilutions were prepared in RPMI binding buffer, maintaining a constant final concentration of DMSO in all conditions. Neutrophils were preincubated with the respective inhibitor in the top well of the plate for 30 minutes at room temperature prior to exposure to IL-8. An equivalent concentration of the respective inhibitor was placed in the bottom well to prevent any concentration gradient. DMSO concentration was maintained in all wells as a vehicle control. […] Neutrophils that migrated completely across the 3-μM filter were quantitated using FACS analysis with appropriate forward and sideward scatter. Percentage inhibition relative to the positive control (IL-8 alone) was calculated for each condition after subtracting the blank reading (no IL-8).

[7] = system: IL-8 activation of ERK; experiment: IL-8 activation of ERK in human PMNs, Western blot with phospho-specific ERK antibody; assay type: cell-based; conditions: for inhibition of IL-8 activation of ERK at 0.1 μM: 0.1 μM inhibitor
Method: Activation of MAPK was examined by phospho-specific ERK antibody in isolated human PMNs that were stimulated with 3 nM of IL-8 for various periods of time (A). […] The effect of the inhibitors was monitored by measuring p-ERK activity by Western blotting. The blots were normalized using the ERK antibody.
as §2
Neutrophils were preincubated with the respective inhibitor for 30 minutes at room temperature in 1.5-mL microfuge tubes prior to addition of IL-8 (3.125 nM). […] Thus, neutrophils were exposed to IL-8 for 5 minutes at room temperature, after which whole cell lysates were obtained via lysis with RIPA buffer and analyzed by Western blot analysis using phospho specific antibodies, p44/42 MAP (ERK) and p38 MAPK kinase. Standard Western blotting was performed using chemiluminescence. All blots were normalized with the respective nonphosphorylated antibodies.
To confirm IL-8 activation of ERK, neutrophils were stimulated with 3 nM of IL-8 for various periods of time, ranging from 0 to 30 minutes (FIG. 1A).
as §1

[8] = system: IL-8-induced neutrophil recruitment to the skin; experiment: IL-8 skin recruitment model (in vivo rabbit neutrophil recruitment assay)
Method: Three hours after the last dose, animals were injected with ^125I IL-8 (10μCi), and 10 minutes later various doses of cold (unlabeled) IL-8 was injected intradermally at local sites on the back of the rabbits. Sixty minutes later, the animals were sacrificed, punch biopsies were performed, and the radiation in the skin was measured using a gamma counter. Each value represents the average±standard deviation error of three representative experiments with three animals in each group and triplicates within each treatment. The asterisk indicates significant (p<0.05) differences between the respective treatments in control animals versus drug-administered animals. […]
In control rabbits, the vehicle was administered. […] The biopsies were weighed and sample-associated radioactivity was determined using a gamma counter (Packard Model #05005, Downers Grove, Ill.).
In each experiment, triplicate samples were obtained for each experimental condition. In studies where IL-8 was not tested or the highest 1-μg dose of IL-8 was not used, the data is expressed as either raw counts or adjusted counts. […] In dose-response studies where the 1-μg dose of IL-8 was used, the weight-normalization background (vehicle-treated skin) was subtracted from weight-normalized treated samples, and the data was then expressed as a percent maximal response to the 1-μg dose of IL-8. […]

[9] = system: PMNs; experiment: cytotoxicity on the PMNs; conditions: higher concentrations of the drug

oral bioavailability [1]: orally nonbioavailable
Structure (SMILES): COc1cccc(-c2cc(=O)c3ccccc3o2)c1N [2-(2-amino-3-methoxy-phenyl)-chromen-4-one]
inhibition of IL-8-induced chemotaxis in previous studies [2]: lack of inhibition

inhibition of IL-8 activation of MEK1/2 [4]: inhibited
IC50 ([6]; Homo sapiens, Neutrophil): 140 nM
Structure (SMILES): O=C(NOCC1CC1)c1ccc(F)c(F)c1Nc1ccc(I)cc1Cl [2-(2-chloro-4-iodo-phenylamino)-N-cyclopropylmethoxy-3,4-difluoro-benzamide]
IC50 [3]: 150 nM
bioavailability, as recently described [5]: bioavailable
inhibition of chemotaxis at 0.001 μM ([6]; 0.001 μM inhibitor, 3.125 nM IL-8): minimal inhibition
inhibition at 0.1 µM ([6]; Homo sapiens, Neutrophil, read-out: inhibition of chemotaxis at 0.1 nM IL-8, 0.1 μM inhibitor, 0.1 nM IL-8): ~80%
inhibition at 0.01 µM ([6]; Homo sapiens, Neutrophil): ~50%
inhibition at 0.1 µM ([6]; Homo sapiens, Neutrophil, read-out: inhibition of chemotaxis at 100 nM IL-8, 0.1 μM inhibitor, 100 nM IL-8): ~30%
maximal inhibition of IL-8-induced chemotaxis, compound alone ([6]; maximal block, single agent): 60%
effect on IL-8-induced ERK activation at 0.01 μM ([7]; 0.01 μM inhibitor): blocks ERK activation completely
inhibition of IL-8 activation of ERK at 0.1 μM [7]: almost completely blocks; also recorded: completely inhibited
inhibition of IL-8 activation of ERK at 0.1 μM ([7]; listed as 2-(2-Chloro-4-iodo-phenylamino)-N-cyclopropylmethoxy-3,4-difluoro-benzamide): almost completely blocked
inhibition of IL-8 activation of ERK ([7]; inhibitor 0 to 100 μM for 30 minutes, then IL-8 for 5 minutes): dose dependent inhibition; also recorded: clearly blocked
decrease of IL-8-induced neutrophil recruitment in vivo ([8]; 30 mg/kg PO three times at 8 hour intervals, higher IL-8 concentrations tested): ~50%
number of neutrophils recruited to the skin ([8]; 30 mg/kg PO three times, all IL-8 concentrations tested): consistently decreased

Structure (SMILES): COC[C@H]1OC(=O)c2coc3c2[C@@]1(C)C1=C(C3=O)[C@@H]2CCC(=O)[C@@]2(C)C[C@H]1OC(C)=O [Wortmannin, reference compound]
cytotoxicity effects on the PMNs [9]: No visible cytotoxicity effects
inhibition of chemotaxis at 0.01 μM ([6]; 0.01 μM inhibitor alone, 0.01 µM): 28%
inhibition at 0.001 µM ([6]; Homo sapiens, Neutrophil, read-out: inhibition of chemotaxis at 0.001 μM, 0.001 μM inhibitor, 3.125 nM IL-8): 25 to 30%
inhibition at 0.01 µM ([6]; Homo sapiens, Neutrophil): ~30%
inhibition at 1 µM ([6]; Homo sapiens, Neutrophil, read-out: inhibition of chemotaxis at 1 μM, 1 μM inhibitor, 3.125 nM IL-8): 100%
IC50 ([6]; Homo sapiens, Neutrophil): 20 nM
